Data from publication PMC7561186, “Rational design of balanced dual-targeting antibiotics with limited resistance” (PLoS Biology, 2020).
pIC50: −log10 of the molar value. “And” between values parts separate entries of the source, which are not always exact repeats. Identical values can stand only once.

Assays:
[1] = tested on: S. aureus ATCC 700699 (VISA); experiment: microbe, parasite or virus in culture; assay type: cell-based; conditions: for MIC: Staphylococcus aureus, read-out: MIC in adapted strains; for increase in MIC in adapted strains compared with the wild-type strain: lineages adapted to the same compound, S. aureus VISA
Description: Adaptive laboratory evolution experiments followed an established protocol for automated laboratory evolution and aimed to maximize the drug-resistance increment during a fixed time period. […] Experiments were conducted in 96-well plates, in MHBII medium, by utilizing a checkerboard layout to minimize and monitor cross-contamination. These 96-well deep-well plates (0.5 mL, polypropylene, V-bottom) were covered with sandwich covers (Enzyscreen BV) to ensure an optimal oxygen exchange rate and limit evaporation and were shaken at 150 rpm, 37 °C. […] Following cell transfer, each culture was allowed to grow for 48 hours. At each transfer, cell growth was monitored by measuring the OD600 in a BioTek Synergy 2 plate reader. […] Accordingly, only 1 of the 4 populations was retained for each independently evolving strain. This protocol was designed to avoid population extinction and to ensure that populations with the highest level of resistance are propagated further during adaptive evolution. […] Adaptation of populations was terminated after 20 transfers, i.e., 40 days. Following adaptation, cells from each final population were spread onto MHBII agar plates, and individual colonies were isolated. Next, one colony from each adapted line were subjected to capillary sequencing of gyrB and parE to assess their genotype.

MCF-7 cells = conditions: LDH assay
Description: (§2) Cytotoxicity of compounds on HepG2 and MCF-7 mammalian cell lines was determined by using a standard LDH assay. Briefly, HepG2 and MCF-7 cells were cultured in Eagle’s MEM medium (from Gibco) supplemented with 2 mM L-glutamine (Sigma), 100 U/mL penicillin (Sigma), and 100 μg/mL streptomycin (Sigma), and 10% FBS (Gibco) at 37 °C and under 5% CO2. Next, LDH assays were performed according to manufacturer instructions (Thermo Fisher Scientific, Massachusetts, USA). By using a CyQUANT LDH Cytotoxicity Assay Kit. Firstly, the cells were seeded in 96-well microtiter plates at 10^5 cells/mL (100 μL/well) and allowed to attach overnight. […] Lysis buffer (10 μL, Thermo Fisher Scientific) was then added to the maximal LDH activity control wells and incubated additional 45 minutes. The cell culture supernatant (50 μL) was then transferred to a new 96-well plate and mixed with 50 μL of the reaction mixture. After 30 minutes on room temperature, reactions were stopped with 50 μL of the Stop solution. Absorbance (490 nm and 680 nm) was measured with the automatic microplate reader Synergy 4 Hybrid Microplate Reader (BioTek, VT, USA). All experiments were performed in triplicates and repeated 3 times. Statistical significance (P < 0.05) was calculated with 2-tailed Welch’s t-test between treated groups and DMSO. The percentage of cytotoxicity was determined according to the following equation: %Cytotoxicity=(CompoundtreatedLDHactivity-SpontaneousLDHactivity/MaximumLDHactivity-SpontaneousLDHactivity)*100

[2] = tested on: human hERG potassium ion channel; conditions: for inhibitory effect on human hERG ion channels: 150 μM, in words; for Significant (hERG inhibition) / Normalized inhibition (%): 150 µM, hERG; for Normalized inhibition (%): n = 8
Description: Inhibition of the human hERG cardiac K+ ion channel was determined by Eurofins Panlabs (St. Charles, MO, USA) by using QPatch automated whole-cell patch-clamp electrophysiology, as described previously. […] During measurements, after whole-cell patch configuration was achieved, the cells were held at −80 mV. Next, a 500-millisecond pulse to −40 mV was delivered to measure the leaking current, which was then subtracted from the tail current’s readout. Then the cell was depolarized to +40 mV for 500 milliseconds and then to −80 mV over a 100-millisecond ramp to elicit the hERG tail current. This workflow was repeated once in every 8 seconds to monitor the current amplitude. The parameters measured during each test were the maximum tail current evoked on stepping to 40 mV and ramping back to −80 mV from the test pulse. All data were filtered for seal quality, seal drop, and current amplitude. The peak current amplitude was calculated before and after compound addition, and the amount of inhibition was assessed by dividing the test compound’s current amplitude by the control’s current amplitude. During our tests, the control was the mean hERG current amplitude collected 15 seconds at the end of each measurement, and the test compound was the mean hERG current amplitude collected in the presence of test compound at the given concentration.

in vitro = conditions: human
Description: as §2

[3] = tested on: multidrug-resistant Staphylococcus, Enterococcus, and Streptococcus isolates; experiment: MIC against multidrug-resistant gram-positive isolates (summary); assay type: cell-based; conditions: read-out: MIC values against all studied multidrug-resistant Staphylococcus, Enterococcus, and Streptococcus isolates
Description: (§1) MICs were determined using a standard serial broth microdilution technique according to the CLSI guidelines. Briefly, bacterial strains were inoculated onto MHBII agar plates and were grown overnight at 37 °C. Next, 3 individual colonies from each strain were inoculated into 1 mL MHBII medium and propagated at 37 °C, 250 rpm overnight. In the cases of Enterococcus and Streptococcus sp., cells were plated to BHI agar plates, and BHI broth was used to determine MICs. […] Following dilutions, each well was seeded with 5×10^4 bacterial cells. All measurements were performed in 3 parallel replicates and to avoid possible edge effects in microwell plates, side rows (A and H) were filled with sterile medium. Following inoculations, plates were covered with lids and wrapped in polyethylene plastic bags to minimize evaporation but allow for O2 transfer. Plates were incubated at 37 °C under continuous shaking at 150 rpm for 18 hours. After incubation, OD600 of each well was measured using a BioTek Synergy 2 microplate reader.

[4] = tested on: S. aureus ATCC 700699 VISA; experiment: Time-dependent killing; assay type: cell-based; conditions: for Time-kill bacterial count: 10xMIC; for cell killing (bactericidal) activity: 10× MIC, S. aureus ATCC 700699 (VISA), in words; for Colony numbers: time-kill raw counts, Samples 1-3
Description: Time-dependent killing experiments were performed as previously. S. aureus ATCC 700699 VISA cells were inoculated to MHBII agar plates and grown overnight at 37 °C. Next, 3 independent stationer-phase starter cultures were grown at 37 °C, 250 rpm overnight, in 3 × 1 mL MHBII broth. Next, 100-fold diluted cultures were prepared from each in 20 mL fresh MHBII medium and grown at 37 °C, 250 rpm until early exponential phase (OD600 = 0.3–0.4; i.e., 5 × 10^5 cells/mL). […] Cells were treated with antibiotics in Erlenmeyer flasks at 37 °C, 150 rpm for 48 hours. […] Next, 50 μL from each dilution were plated on MHBII agar plates, and plates were incubated overnight at 37 °C to calculate CFU per mL.

[5] = tested on: Staphylococcus epidermidis; experiment: MIC, broth microdilution (CLSI); assay type: cell-based; conditions: Staphylococcus epidermidis ATCC 51625, MRSE
Description: as §1

human red blood cells = experiment: Haemolysis analysis; conditions: for LDH activity: human red blood cells, 100 µg/mL; for hemolytic activity on human red blood cells: in words
Description: Next, 600 μl of this EDTA-treated blood was washed in TBS buffer (10 mM TRIS, 150 mM NaCl [pH 7.2]) and centrifuged at 1,500 g for 1 minute until the supernatant became colorless. The aliquot of the final pellet (200 μL) was diluted to 5 mL with TBS buffer. […] Next, 100 μL of red blood cell suspension was pipetted into sterile Eppendorf tubes together with 100 μL of 2-fold serial dilution of the compounds (final concentration ranged between 100 μg/mL–0.1 μg/mL in a final volume of 200 μL). The plate was incubated for one hour at 37 °C followed by centrifugation at 1,500 g for 1 minute to sediment all red blood cells. Next, all supernatants were subjected to LDH and Haemolysis-Icterus-Lipaemia (HIL) index determination on a Roche Modular P800 analyzer according to the manufacturer’s instructions. After completion of this step the rest of the supernatants were transferred to sterile 96-well plates for the measurement of their optical density at 560-nm wavelength (in a Multiskan FC microplate reader, Thermo Scientific). Melittin (Bachem) at a concentration of 50 μg/mL, and TBS and 10% DMSO/TBS were served as positive (100% hemolysis) and negative (no hemolysis) controls, respectively.

Cc1[nH]c(C(=O)Nc2nc3ccc(C(=O)O)cc3s2)c(Cl)c1Cl [ULD1]
MIC [1]: 1 µg/mL
increase in MIC in adapted strains compared with the wild-type strain [1]: 25 fold
Max. % inhibition at 100 µM (MCF-7 cells): Max. % inhibition at 100 µM: 0%
inhibitory effect on human hERG ion channels [2]: No statistically significant inhibitory effect
Significant (hERG inhibition) [2]: No (Only results showing an inhibition higher than 50% are considered to represent significant effects of the tested compounds)
Normalized inhibition (%) [2]: 5.5%
pIC50 (in vitro): < 4.00
MIC [3]: < 2 µg/mL
Time-kill bacterial count ([4]; time 0 hour): 2.80E+05
Time-kill bacterial count ([4]; time 3 hour): 9.80E+04
Time-kill bacterial count ([4]; time 6 hour): 6.30E+04
Time-kill bacterial count ([4]; time 12 hour): 4.90E+03
Time-kill bacterial count ([4]; time 18 hour): 1.70E+03
Time-kill bacterial count ([4]; time 24 hour): 8.50E+02
Time-kill bacterial count ([4]; time 48 hour): 1.60E+02
cell killing (bactericidal) activity [4]: exceed that of fusidic acid
Colony numbers ([4]; time 0 h, Dilution 100): 145 and 132 and 137
Colony numbers ([4]; time 3 h, Dilution 100): 54 and 53 and 40
Colony numbers ([4]; time 6 h, Dilution 100): 38 and 20 and 36
Colony numbers ([4]; time 12 h, Dilution 10): 20 and 23 and 31
Colony numbers ([4]; time 18 h, Dilution 1): 83 and 63 and 113
Colony numbers ([4]; time 24 h, Dilution 0.5): 65 and 80 and 110
MIC [5]: 0.0625 µg/mL
LDH activity (human red blood cells): 40 Unit/mL
hemolytic activity on human red blood cells (human red blood cells): no biocompatibility concerns

Cc1[nH]c(C(=O)Nc2nc3c(OCc4ccccc4)cc(C(=O)O)cc3s2)c(Cl)c1Cl [ULD2]
MIC [1]: 0.5 µg/mL
increase in MIC in adapted strains compared with the wild-type strain [1]: 25 fold
Max. % inhibition at 100 µM (MCF-7 cells): Max. % inhibition at 100 µM: 8.43%
inhibitory effect on human hERG ion channels [2]: No statistically significant inhibitory effect
Significant (hERG inhibition) [2]: No (Only results showing an inhibition higher than 50% are considered to represent significant effects of the tested compounds)
Normalized inhibition (%) [2]: 27%
pIC50 (in vitro): < 4.00
MIC [3]: < 2 µg/mL
Time-kill bacterial count ([4]; time 0 hour): 2.80E+05
Time-kill bacterial count ([4]; time 3 hour): 9.90E+04
Time-kill bacterial count ([4]; time 6 hour): 5.60E+04
Time-kill bacterial count ([4]; time 12 hour): 7.00E+03
Time-kill bacterial count ([4]; time 18 hour): 4.90E+02
Time-kill bacterial count ([4]; time 24 hour): 1.90E+02
Time-kill bacterial count ([4]; time 48 hour): 1.70E+01
cell killing (bactericidal) activity [4]: exceed that of fusidic acid
Colony numbers ([4]; time 0 h, Dilution 100): 145 and 132 and 137
Colony numbers ([4]; time 3 h, Dilution 100): 56 and 39 and 53
Colony numbers ([4]; time 6 h, Dilution 100): 28 and 24 and 32
Colony numbers ([4]; time 18 h, Dilution 1): 31 and 22 and 20
Colony numbers ([4]; time 48 h, Dilution 0.5): 1 and 2
LDH activity (human red blood cells): 10 Unit/mL
hemolytic activity on human red blood cells (human red blood cells): no biocompatibility concerns
